Read-outs that look alike come from different tables or passages of the source.
Key:
in vivo = details: for Cmax: C max; for absorption and elimination (in words): oral BTWD
Protocol: The LC-MS analysis was conducted using a Waters Acquity UPLC I-Class system (Waters, USA) coupled with a Xevo TQ-XS mass spectrometer equipped with a heated electrospray ionization source. Chromatographic separation was carried out on an Acquity UPLC HSS T3 C18 column (2.1 mm × 50 mm, 1.8 μm) from Waters, USA, with a flow rate of 0.4 mL/min and a column oven temperature of 40°C. The mobile phase consisted of 0.1% aqueous formic acid (A) and acetonitrile (B). The gradient elution program was as follows: 0–2.0 min, 10%–60% B; 2.0–2.2 min, 60%–95% B; 2.2–3.2 min, 95% B; 3.2–3.5 min, 95%–10% B; and 3.5–5.5 min, 10% B. Mass spectrometric detection was conducted using both positive and negative ionization modes. The source parameters used were as follows: a spray voltage of 1.00 KV, capillary temperature set at 500°C, desolvation flow maintained at 1000 L/h, cone gas (nitrogen) flow at 150 L/h, and a cone voltage of 5 V. The collision energy and precursor to production transition m/z for each analyte are found in Table 1. The data acquisition was performed in multiple reaction monitoring (MRM) mode.
Subsequently, a volume of 400 μL of acetonitrile was added to a 100 μL plasma sample. The resulting mixture was subjected to vortexing for 1 minute and centrifuged at a force of 21367 g for 10 minutes at a temperature of 4°C. The resulting supernatant was subjected to evaporation, followed by reconstitution in a volume of 100 μL of 10% acetonitrile. This reconstituted solution was then centrifuged at a force of 21367 g, and subsequently, a volume of 4 μL of the resulting supernatant was used for UPLC-ESI-MS/MS analysis.
The study used six Bama miniature pigs (70 days old, weighing 20 ± 2 kg) obtained from the Experimental Animal Center, Shandong Lvdu Bio-Sciences and Technology Co., Ltd. (Binzhou, China). The pigs were housed under controlled conditions with a temperature of 25 ± 1°C, relative humidity of 65% ± 10%, and a 12/12 h light/dark cycle. The pigs were provided with standard pig feed and water ad libitum, in accordance with the guidelines outlined in the National Institutes of Health Guide for Care and Use of Laboratory Animals. […] Blood samples (0.5 mL each) were collected from the jugular vein of each pig into heparinized tubes at specific time intervals (0.5 h, 1.0 h, 4.0 h, 8.0 h, 12.0 h, 15.0 h, and 24.0 h) following intragastric administration. The blood sample was promptly subjected to centrifugation at a force of 3400 × g for 10 minutes. The resulting supernatant plasma was collected and preserved at a temperature of −80°C until subsequent preparation for LC-MS analysis. The concentration-time data of the analytes were evaluated using either noncompartmental or compartmental methods with the aid of the PKSolver 2.0 software package, and subsequently, pharmacokinetic parameters were computed. The outcomes are presented as the arithmetic mean accompanied by the standard deviation (SD).

[1] = parameters: method as in PMID 34331552; details: rats, fruit of Tetradium ruticarpum and licorice extracts together; cited from earlier work
[2] = parameters: method as in PMID 33217008; details: rats, oral 10 mg/kg obacunone; cited from earlier work
[3] = parameters: method as in PMID 10891884; details: beagle dogs, oral 300 mg of palmatine; cited from earlier work
[4] = parameters: method as in PMID 28871816; details: rats, cited from earlier work
[5] = Bama miniature, pig, in vivo, po
[6] = pig plasma, oral BTWD 1.0 mL/kg
[7] = pig plasma, single oral BTWD 1.0 mL/kg, n = 6, mean ± SD

COc1cc2ccc(=O)oc2c(O)c1O [Fraxetin, fraxetin]
AUC(0-inf) (in vivo; [5]): 159 ± 9.33 ng·h/mL | AUC(0-t) (in vivo; [5]): 159 ± 9.33 ng·h/mL | MRT (in vivo; [5]): 0.98 ± 0.01 h | Tmax (in vivo; [5]): 0.49 ± 0.01 h | half-life (in vivo; [5]): 0.33 h | Cmax (in vivo; [5]): 119 ± 6.14 ng/mL | absorption and elimination (in words) (in vivo; pig plasma): rapidly absorbed and eliminated from the plasma | concentration-time profile (shape) (in vivo; [6]): biphasic patterns | CL/F (in vivo; [7]): 9.72 ± 0.56 mL/h

COc1cc2ccc(=O)oc2c(O[C@@H]2O[C@H](CO)[C@@H](O)[C@H](O)[C@H]2O)c1O [Fraxin, fraxin]
AUC(0-inf) (in vivo; [5]): 53.5 ± 2.78 ng·h/mL | AUC(0-t) (in vivo; [5]): 53.2 ± 2.7 ng·h/mL | MRT (in vivo; [5]): 1.07 ± 0.04 h | Tmax (in vivo; [5]): 0.53 ± 0.02 h | half-life (in vivo; [5]): 0.36 ± 0.01 h | Cmax (in vivo; [5]): 36.8 ± 0.48 ng/mL | absorption and elimination (in words) (in vivo; pig plasma): rapidly absorbed and eliminated from the plasma | CL/F (in vivo; [7]): 36.38 ± 1.84 mL/h

CC1(C)OC(=O)C=C[C@]2(C)[C@H]3CC[C@@]4(C)[C@H](c5ccoc5)OC(=O)[C@H]5O[C@]54[C@]3(C)C(=O)C[C@@H]12 [Obacunone, obacunone]
MRT [1]: 4.90 ± 2.60 h | Tmax [1]: 1.67 ± 0.29 h | MRT [2]: 4.30 ± 0.16 h | Tmax [2]: 1 to 2 h | AUC0− inf (in vivo; [5]): 1146.51 ± 7.38 ng·h/mL | AUC(0-t) (in vivo; [5]): 111 ± 3.9 ng·h/mL | MRT (in vivo; [5]): 17.4 ± 3 h | Tmax (in vivo; [5]): 3.49 ± 0.07 h | half-life (in vivo; [5]): 0.88 ± 0.15 h | Cmax (in vivo; [5]): 7.39 ± 0.71 ng/mL | CL/F (in vivo; pig, in vivo, po): 0.37 ± 0.02 mL/h | Cmax (in words) (in vivo; pig, in vivo, po): low Cmax

COc1cc2c(cc1O)C[C@H]1c3cc(O)c(OC)cc3CC[N@@+]1(C)C2 [Phellodendrine, phellodendrine]
AUC0− inf (in vivo; pig, in vivo, po): 73.39 ± 2.80 ng·h/mL | AUC0−t (in vivo; pig, in vivo, po): 69.72 ± 2.62 ng·h/mL | C max (in vivo; pig, in vivo, po): 8.18 ± 0.21 ng/mL | CL/F (in vivo; pig, in vivo, po): 12.41 ± 0.47 mL/h | Cmax (in words) (in vivo; pig, in vivo, po): low Cmax | MRT (in vivo; pig, in vivo, po): 11.39 ± 0.14 h | T max (in vivo; pig, in vivo, po): 12.00 h | concentration-time profile (shape) (in vivo; pig, in vivo, po): biphasic patterns | plasma concentrations (in vivo; pig, in vivo, po): below 10.0 ng/mL | t 1/2 (in vivo; pig, in vivo, po): 3.81 ± 0.10 h

C=C(C)[C@@H]1CC[C@]2(C(=O)O[C@@H]3O[C@H](CO[C@@H]4O[C@H](CO)[C@@H](O[C@@H]5O[C@@H](C)[C@H](O)[C@@H](O)[C@H]5O)[C@H](O)[C@H]4O)[C@@H](O)[C@H](O)[C@H]3O)CC[C@]3(C)[C@H](CC[C@@H]4[C@@]5(C)CC[C@H](O[C@@H]6OC[C@H](O)[C@H](O)[C@H]6O[C@@H]6O[C@@H](C)[C@H](O)[C@@H](O)[C@H]6O)[C@@](C)(CO)[C@@H]5CC[C@]43C)[C@@H]12 [Pulchinenoside B4, pulchinenoside B4]
absorption and elimination (in words) (in vivo; pig plasma): rapidly absorbed and eliminated from the plasma | concentration-time profile (shape) (in vivo; [6]): biphasic patterns | AUC0− inf (in vivo; [7]): 2580.65 ± 89.09 ng·h/mL | AUC0−t (in vivo; [7]): 2525.63 ± 87.16 ng·h/mL | C max (in vivo; [7]): 276.70 ± 10.54 ng/mL | CL/F (in vivo; [7]): 1.36 ± 0.05 mL/h | MRT (in vivo; [7]): 9.57 ± 0.14 h | T max (in vivo; [7]): 1.00 h | t 1/2 (in vivo; [7]): 3.27 ± 0.17 h

COc1cc2c(cc1OC)-c1cc3ccc(OC)c(OC)c3c[n+]1CC2 [palmatine]
Cmax [3]: 8 ng/mL | Tmax [3]: 5 h | Cmax ([4]; oral Coptis root granules): 2.14 ± 0.68 ng/mL | Tmax ([4]; oral Coptis root granules): 0.36 ± 0.074 h | Cmax ([4]; oral Shuanghua Baihe tablets): 2.50 ± 0.43 ng/mL | Tmax ([4]; oral Shuanghua Baihe tablets): 3.22 ± 0.81 h | concentration at 12 h (in vivo; [5]): 5.79 ng/mL | plasma concentration (in words) (in vivo; pig, in vivo, po): below the threshold required for the analysis of PK behavior

— paper PMC11101253, “Pharmacokinetic Properties of Baitouweng Decoction in Bama Miniature Pigs: Implications for Clinical Application in Humans” (International Journal of Analytical Chemistry, 2024)
